For series [1] the following is noted: lasso peptides, aspartimide hydrolysis; cited from earlier work.
The target in series [2] is unmodified C62A ThfA (Thermobifida fusca). Nature of the series: BLI. A general note: Biolayer interferometry detects binding as a change in optical thickness at a sensor tip.
For series [3], the target named is doubly dehydrated C62A ThfA (Thermobifida fusca). Kind of series: BLI.

What is called Kd is the concentration at which binding is half-saturated.

In the case of cellulonodin-2, the “regioselectivity of aspartimide opening” value in series [1] was “open exclusively to the Asp backbone form”. With lihuanodin, the “regioselectivity of aspartimide opening” value in series [1] is on record as “open exclusively to the Asp backbone form”.

B1: maltose binding protein (MBP) fusion to ThfB (enzyme)
chain: MSQAEYEFAATEARRGFGGIINSLTGWINHPSAIGRAEYKPYQLHHAVQAGLNVPRTLITNDPKQAKGWCARVGDVVYKPLSAPSWLENGDTYVVFTTPITPDQWGDPAIGRTAHMFQQRLDKEFEVRLTMVDGKAFPAAIHAHSDAARIDWRSDYDALTYSIPTVPQRVLTGARDLLRRLHLRYAALDFIVSPDGRWHFLEVNPNGQYGWIEEHTGQPISDAIADALTRKEN
modifications: not checked
As for B1, the Kd in series [2] is 28 nM; in series [3], 18 nM.

(Values after publication PMC10078976 (Nature chemistry, 2022).)
